Values after ≈ are worked out from the molar mass of the structure shown.
System: P388
Test: Cytotoxicity against mouse P388 cells
Assay type: functional, cell-based

Structure (SMILES)	IC50 [µg/mL]
COC(=O)C[C@](O)(CCCC(C)C)C(=O)O[C@@H]1C(OC)=C[C@]23CCCN2C[C@@H](O)c2cc4c(cc2[C@H]13)OCO4	0.38 (≈ 0.696 µM)
COC(=O)C[C@](O)(CCCC(C)C)C(=O)O[C@@H]1C(OC)=C[C@]23CCCN2C[C@H](O)c2cc4c(cc2[C@H]13)OCO4	0.33 (≈ 0.605 µM)
COC(=O)C[C@](O)(CCC(C)C)C(=O)O[C@@H]1C(OC)=C[C@]23CCCN2C[C@H](O)c2cc4c(cc2[C@H]13)OCO4	0.17 (≈ 0.32 µM)

— ChEMBL document CHEMBL1158304, “New Oxygenated Cephalotaxus Alkaloids from Cephalotaxus harringtonia var. drupacea” (J Nat Prod, 1996)
